Like-named read-outs stand apart in the source and are kept apart here.
Biological target: RIPK1 (Homo sapiens (Human), UniProt Q13546)
Experiment: ADP-Glo kinase assay (RIPK1 activity, conversion of ATP to ADP)
Format: biochemical
Settings: 5 nM RIPK1, 50 μM ATP, 6 h reaction, read-out: RIPK1 Enzyme Avg IC50
Description: In order to measure RIPK1 activity the ADP-Glo kinase assay (Promega, Catalog #V7002) was used to measure the conversion of ATP to ADP. This enzymatic assay was performed in a 384-well white, Optiplate (Perkin Elmer, Catalog #6007299) with assay buffer consisting of 50 mM HEPES pH 7.5 (Gibco, Catalog #15630-080), 50 mM NaCl (Teknova, Catalog #S0252), 30 mM MgCl2 (Ambion, Catalog #AM9530G), 1 mM DTT (Santa Cruz Biotechnology, Catalog #sc-29089), 0.05% BSA (Sigma, Catalog #A3059-50G) and 0.02% CHAPS (Sigma, Catalog #C5070-5G). Stock solutions of the test compounds were prepared in 100% DMSO (Sigma, Catalog #D2650) and serially diluted 1:3 using 100% DMSO. Compounds were additionally diluted 1:40 in assay buffer, and 2 μL/well were transferred to the assay plate. 4 μL/well (final concentration of 5 nM) of RIPK1 protein (SignalChem, Catalog #R07-1IG-05) diluted in assay buffer and added to the assay plate followed by a 10 minute preincutation at rt. 4 μL/well of ATP (Promega, Catalog #V7002) (final concentration of 50 μM) diluted in assay buffer were then added to the assay plate followed by a 6 h reaction time. Final concentrations of RIPK1 and ATP refer to a 10 μL volume. Luminescence was measured using a BioTek Synergy™ NEO plate reader. IC50 values were calculated using a four-parameter logistic curve fit using Genedata Screener software.

Sequence of RIPK1 (Q13546 1-327): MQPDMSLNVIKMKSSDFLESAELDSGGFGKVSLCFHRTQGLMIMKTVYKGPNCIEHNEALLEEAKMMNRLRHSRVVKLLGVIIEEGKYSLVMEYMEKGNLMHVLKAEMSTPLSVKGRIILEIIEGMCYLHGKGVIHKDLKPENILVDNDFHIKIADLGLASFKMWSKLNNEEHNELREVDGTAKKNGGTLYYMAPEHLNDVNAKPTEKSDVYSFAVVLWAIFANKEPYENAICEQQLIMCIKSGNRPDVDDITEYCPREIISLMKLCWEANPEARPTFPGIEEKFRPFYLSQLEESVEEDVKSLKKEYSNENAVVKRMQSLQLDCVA

Row | SMILES | IC50 [nM] | IC50 (footnote symbol (a)) [nM]
1 | CP(C)(=O)c1cc(OCC23CC(C(=O)N4N=CCC4c4cc(F)cc(F)c4)(C2)C3)ncn1 (stereo not shown) [Example 17, (5-(3,5-Difluorophenyl)-4,5-dihydro-1H-pyrazol-1-yl)(3-(((6-(dimethylphosphoryl)pyrimidin-4-yl)oxy)methyl)bicyclo[1.1.1]pentan-1-yl)methanone] | 570 | –
2 | O=C(N1N=CCC1c1cc(F)cc(F)c1)C12CC(Cc3nnn[nH]3)(C1)C2 (stereo not shown) [Example 19, (3-((1H-tetrazol-5-yl)methyl)bicyclo[1.1.1]pentan-1-yl)(5-(3,5-difluorophenyl)-4,5-dihydro-1H-pyrazol-1-yl)methanone] | 363 | –
3 | Cc1nnc(CC23CC(C(=O)N4N=CCC4c4cc(F)cc(F)c4)(C2)C3)o1 (stereo not shown) [Example 20, (5-(3,5-Difluorophenyl)-4,5-dihydro-1H-pyrazol-1-yl)(3-((5-methyl-1,3,4-oxadiazol-2-yl)methyl)bicyclo[1.1.1]pentan-1-yl)methanone] | 1110 | –
4 | O=C(N1CC(F)CC1c1cccc(F)c1)C12CC(CO)(C1)C2 (stereo not shown) [Example 24, (4-Fluoro-2-(3-fluorophenyl)pyrrolidin-1-yl)(3-(hydroxymethyl)bicyclo[1.1.1]pentan-1-yl)methanone] | 38800 | –
5 | Cc1cccc(C2CCCN2C(=O)C23CC(N4C(=O)CCC4=O)(C2)C3)c1 (stereo not shown) [Example 25, 1-(3-(2-(m-Tolyl)pyrrolidine-1-carbonyl)bicyclo[1.1.1]pentan-1-yl)pyrrolidine-2,5-dione] | – | > 50000
6 | O=C(N1N=CCC1c1cc(F)cc(F)c1)C12CC(CN3C(=O)C(F)(F)c4ccccc43)(C1)C2 (stereo not shown) [Example 32, 1-((3-(5-(3,5-Difluorophenyl)-4,5-dihydro-1H-pyrazole-1-carbonyl)-bicyclo[1.1.1]pentan-1-yl)methyl)-3,3-difluoroindolin-2-one] | 196 | –
7 | N#Cc1cnn(CC23CC(C(=O)N4CC(F)CC4c4cccc(F)c4)(C2)C3)c1 (stereo not shown) [Example 33, 1-((3-(4-Fluoro-2-(3-fluorophenyl)pyrrolidine-1-carbonyl)-bicyclo[1.1.1]pentan-1-yl)methyl)-1H-pyrazole-4-carbonitrile] | 466 | –
8 | COC(=O)C12CC(C(=O)N3CC(F)CC3c3cccc(F)c3)(C1)C2 (stereo not shown) [Example 34, Methyl 3-(4-fluoro-2-(3-fluorophenyl)pyrrolidine-1-carbonyl)-bicyclo[1.1.1]pentane-1-carboxylate] | 1070 | –
9 | COCC12CC(C(=O)N3CC(F)CC3c3cccc(F)c3)(C1)C2 (stereo not shown) [Example 35, (4-Fluoro-2-(3-fluorophenyl)pyrrolidin-1-yl)(3-(methoxymethyl)-bicyclo[1.1.1]pentan-1-yl)methanone] | 4630 | –
10 | N#Cc1ccn(CC23CC(C(=O)N4CC(F)CC4c4cccc(F)c4)(C2)C3)c(=O)c1 (stereo not shown) [Example 36, 1-((3-(4-Fluoro-2-(3-fluorophenyl)pyrrolidine-1-carbonyl)bicyclo[1.1.1]pentan-1-yl)methyl)-2-oxo-1,2-dihydropyridine-4-carbonitrile] | 19300 | –
11 | COC(=O)C12CC(C(=O)N3CC[C@@H](Oc4cc(F)ccc4F)C3)(C1)C2 [Example 37, Methyl (R)-3-(3-(2,5-difluorophenoxy)pyrrolidine-1-carbonyl)-bicyclo[1.1.1]pentane-1-carboxylate] | – | > 50000
12 | O=C(N1CC[C@@H](Oc2cc(F)ccc2F)C1)C12CC(CO)(C1)C2 [Example 38, (R)-(3-(2,5-Difluorophenoxy)pyrrolidin-1-yl)(3-(hydroxymethyl)-bicyclo[1.1.1]pentan-1-yl)methanone] | – | > 50000
13 | N#Cc1cc(OCC23CC(C(=O)N4CC[C@@H](Oc5cc(F)ccc5F)C4)(C2)C3)ncn1 [Example 39, (R)-6-((3-(3-(2,5-difluorophenoxy)pyrrolidine-1-carbonyl)-bicyclo[1.1.1]pentan-1-yl)methoxy)pyrimidine-4-carbonitrile] | – | > 50000
14 | O=C(N1CC(F)CC1c1cccc(F)c1)C12CC(C(O)c3ccccc3)(C1)C2 (stereo not shown) [Example 40, (4-Fluoro-2-(3-fluorophenyl)pyrrolidin-1-yl)(3-(hydroxy(phenyl)methyl)-bicyclo[1.1.1]pentan-1-yl)methanone] | 4450 | –
15 | O=C(N1N=CCC1c1ccccc1)C12CC(C1)C2 (stereo not shown) [Example 44, Bicyclo[1.1.1]pentan-1-yl(5-phenyl-4,5-dihydro-1H-pyrazol-1-yl)methanone] | 38 | –
16 | O=C(N1N=CCC1c1ccccc1)C12CC(O)(C1)C2 (stereo not shown) [Example 45, (3-Hydroxybicyclo[1.1.1]pentan-1-yl)(5-phenyl-4,5-dihydro-1H-pyrazol-1-yl)methanone] | 8590 | –
17 | CCOC12CC(C(=O)N3N=CCC3c3ccccc3)(C1)C2 (stereo not shown) [Example 46, (3-Ethoxybicyclo[1.1.1]pentan-1-yl)(5-phenyl-4,5-dihydro-1H-pyrazol-1-yl)methanone] | 157 | –
18 | N#Cc1ccc2c(cnn2CC23CC(C(=O)N4N=CCC4c4cc(F)ccc4F)(C2)C3)c1 (stereo not shown) [Example 53, 1-((3-(5-(2,5-difluorophenyl)-4,5-dihydro-1H-pyrazole-1-carbonyl)-bicyclo[1.1.1]pentan-1-yl)methyl)-1H-indazole-5-carbonitrile] | 24 | –
19 | N#Cc1ccc2cnn(CC34CC(C(=O)N5N=CCC5c5cc(F)cc(F)c5)(C3)C4)c2c1 (stereo not shown) [Example 66, 1-((3-(5-(3,5-difluorophenyl)-4,5-dihydro-1H-pyrazole-1-carbonyl)bicyclo[1.1.1]-pentan-1-yl)methyl)-1H-indazole-6-carbonitrile] | 16 | –
20 | Cc1cc(C)n(CC23CC(C(=O)N4N=CCC4c4cc(F)cc(F)c4)(C2)C3)n1 (stereo not shown) [Example 75, (5-(3,5-difluorophenyl)-4,5-dihydro-1H-pyrazol-1-yl)(3-((3,5-dimethyl-1H-pyrazol-1-yl)methyl)bicyclo[1.1.1]-pentan-1-yl)methanone] | 323 | –
21 | O=C(Nc1cc(Cl)ncn1)C12CC(C(=O)N3N=CCC3c3cc(F)cc(F)c3)(C1)C2 (stereo not shown) [Example 76, N-(6-chloropyrimidin-4-yl)-3-(5-(3,5-difluorophenyl)-4,5-dihydro-1H-pyrazole-1-carbonyl)bicyclo[1.1.1]-pentane-1-carboxamide] | 5390 | –
22 | N#Cc1cccc(NC(=O)C23CC(C(=O)N4N=CCC4c4cc(F)cc(F)c4)(C2)C3)c1 (stereo not shown) [Example 77, N-(3-cyanophenyl)-3-(5-(3,5-difluorophenyl)-4,5-dihydro-1H-pyrazole-1-carbonyl)-bicyclo[1.1.1]pentane-1-carboxamide] | 7110 | –
23 | CNC(=O)C12CC(C(=O)N3N=CCC3c3cc(F)cc(F)c3)(C1)C2 (stereo not shown) [Example 78, 3-(5-(3,5-difluorophenyl)-4,5-dihydro-1H-pyrazole-1-carbonyl)-N-methylbicyclo-[1.1.1]pentane-1-carboxamide] | 13000 | –
24 | O=C(N1N=CCC1c1cc(F)cc(F)c1)C12CC(CN3CC(F)(F)C3)(C1)C2 (stereo not shown) [Example 79, (3-((3,3-difluoroazetidin-1-yl)methyl)bicyclo[1.1.1]-pentan-1-yl)(5-(3,5-difluoro-phenyl)-4,5-dihydro-1H-pyrazol-1-yl)methanone] | 425 | –
25 | CS(=O)(=O)C1CN(CC23CC(C(=O)N4N=CCC4c4cc(F)cc(F)c4)(C2)C3)C1 (stereo not shown) [Example 80, (5-(3,5-difluorophenyl)-4,5-dihydro-1H-pyrazol-1-yl)(3-((3-(methylsulfonyl)azetidin-1-yl)methyl)bicyclo[1.1.1]-pentan-1-yl)methanone] | 24700 | –

From patent US20250214942A1, “INHIBITORS OF RECEPTOR INTERACTING PROTEIN KINASE I FOR THE TREATMENT OF DISEASE” (Board of Regents, The University of Texas System, priority 2019, published 2025)
